Results as given in US4069379A, “Semi-synthetic oleandomycins” (Pfizer Inc., priority 1976, dated 1978).
Values after ≈ are worked out from the molar mass of the structure shown. Read-outs that look alike come from different tables or passages of the source.

How the values were obtained:
[1] = test system: Staph. aureus 01A005; assay: minimum inhibitory concentration (MIC), Staph. aureus 01A005; type: cell-based; details: Staphylococcus aureus; in vitro; Staph. aureus 01A005, Gram-positive
Excerpt: (§1) The oleandomycin compounds of the present invention are effective in inhibiting the growth of microorganisms, especially Gram-positive microorganisms. The high activity against Gram-positive organisms shown by these compounds is contrasted in some respects with the lower activity against Gram-negative organisms. The following table illustrates the in vitro antibiotic spectrum of the compounds of the instant invention. The tests were run according to the "minimum inhibitory concentration"(MIC) procedure of Ericsson and Sherris [H. M. Ericsson and J. C. Sherris, Acta. Pathol. Microbiol. Scand. Suppl., 217B 64 (1971)].

[2] = test system: Staph. aureus 01A400R; assay: minimum inhibitory concentration (MIC), Staph. aureus 01A400R; type: cell-based; details: Staphylococcus aureus, read-out: MIC Values, Staph. aureus 01A400R
Excerpt: as §1

[3] = test system: E. coli 51A266; assay: minimum inhibitory concentration (MIC), E. coli 51A266; type: cell-based; details: Escherichia coli; in vitro; E. coli 51A266, Gram-negative
Excerpt: as §1

[4] = test system: Klebsiella pn. 53A009; assay: minimum inhibitory concentration (MIC), Klebsiella pn. 53A009; type: cell-based; details: in vitro; Klebsiella pn. 53A009, Gram-negative
Excerpt: as §1

[5] = test system: Salm. typhm. 58D009; assay: minimum inhibitory concentration (MIC), Salm. typhm. 58D009; type: cell-based; details: in vitro; Salm. typhm. 58D009, Gram-negative
Excerpt: as §1

[6] = test system: B. subtilis; assay: minimum inhibitory concentration (MIC), B. subtilis; type: cell-based; details: Bacillus subtilis, in vitro, Gram-positive
Excerpt: as §1

[7] = test system: Staph. aureus 01A005; assay: protection against in vivo infection of mice infected with Staph. aureus 01A005; details: subcutaneous or oral administration to mice infected with Staph. aureus 01A005; compared with natural oleandomycin
Protocol: The ability of the compounds of the present invention to protect against in vivo infections was determined by subcutaneous or oral administration to mice infected with Staph. aureus 01A005. Using the test method described by Retsema [J. A. Retsema et al., Antimicr.

[8] = in vitro, Staph. aureus 01A400R, Gram-positive

MIC [1]	MIC [2, 8]	MIC [3]	MIC [4]	MIC [5]	MIC [6]	SMILES	protection against infection [7]	MIC ([2]; 01A400R)
25 µg/mL (≈ 31.3 µM)	200 µg/mL (≈ 251 µM)	> 200 µg/mL	> 200 µg/mL	> 200 µg/mL	–	C=C1CC(C)C(OC2OC(C)CC(N(C)C)C2OC(C)=O)C(C)C(OC2CC(OC)C(OC(C)=O)C(C)O2)C(C)C(=O)OC(C)C(C)C(OC(C)=O)C(C)C1=O (centres unmarked) [Compound II Ac Ac Ac, 8,8a-Deoxy-8,8a-Methylene-2',4",11-Triacetyloleandomycin]	–	–
25 µg/mL (≈ 29.3 µM)	200 µg/mL (≈ 235 µM)	> 200 µg/mL	> 200 µg/mL	> 200 µg/mL	25 µg/mL (≈ 29.3 µM)	C=C1CC(C)C(OC2OC(C)CC(N(C)C)C2OC(C)=O)C(C)C(OC2CC(OC)C(OC(C)=O)C(C)O2)C(C)C(=O)OC(C)C(C)C(OC(=O)C(F)(F)F)C(C)C1=O (centres unmarked) [Compound II Ac Ac drawing 7, 8,8a-Deoxy-8,8a-Methylene-2',4"-Diacetyl-11-Trifluoroacetyloleandomycin]	–	–
3.12 µg/mL (≈ 4.13 µM)	> 200 µg/mL	> 200 µg/mL	> 200 µg/mL	> 200 µg/mL	3.12 µg/mL (≈ 4.13 µM)	C=C1CC(C)C(OC2OC(C)CC(N(C)C)C2OC(C)=O)C(C)C(OC2CC(OC)C(O)C(C)O2)C(C)C(=O)OC(C)C(C)C(OC(C)=O)C(C)C1=O (centres unmarked) [Compound II Ac H Ac, 8,8a-Deoxy-8,8a-Methylene-2',11-Diacetyloleandomycin]	–	–
6.25 µg/mL (≈ 9.3 µM)	25 µg/mL (≈ 37.2 µM)	> 200 µg/mL	> 200 µg/mL	–	–	C=C1CC(C)C(OC2OC(C)CC(N(C)C)C2O)C(C)C(OC2CC(OC)C(O)C(C)O2)C(C)C(=O)OC(C)C(C)C(O)C(C)C1=O (centres unmarked) [Compound II H H H, 8,8a-Deoxy-8,8a-Methylene-Oleandomycin]	protection against infection which was comparable to natural oleandomycin	–
1.56 µg/mL (≈ 1.92 µM)	12.5 µg/mL (≈ 15.4 µM)	> 200 µg/mL	> 200 µg/mL	> 200 µg/mL	3.12 µg/mL (≈ 3.84 µM)	COC1CC(OC2C(C)C(=O)OC(C)C(C)C(OC(C)=O)C(C)C(=O)C3(CC3)CC(C)C(OC3OC(C)CC(N(C)C)C3OC(C)=O)C2C)OC(C)C1OC(C)=O (centres unmarked) [Compound III Ac Ac Ac, 8,8a-Deoxy-8,8a-Cyclopropyl-2',4",11-Triacetyloleandomycin]	–	–
0.2 µg/mL (≈ 0.26 µM)	3.12 µg/mL (≈ 4.05 µM)	> 200 µg/mL	> 200 µg/mL	> 200 µg/mL	0.78 µg/mL (≈ 1.01 µM)	COC1CC(OC2C(C)C(=O)OC(C)C(C)C(OC(C)=O)C(C)C(=O)C3(CC3)CC(C)C(OC3OC(C)CC(N(C)C)C3OC(C)=O)C2C)OC(C)C1O (centres unmarked) [Compound III Ac H Ac, 8,8a-Deoxy-8,8a-Cyclopropyl-2',11-Diacetyloleandomycin]	–	–
0.2 µg/mL (≈ 0.292 µM)	1.56 µg/mL (≈ 2.27 µM)	> 200 µg/mL	> 200 µg/mL	> 200 µg/mL	0.39 µg/mL (≈ 0.569 µM)	COC1CC(OC2C(C)C(=O)OC(C)C(C)C(O)C(C)C(=O)C3(CC3)CC(C)C(OC3OC(C)CC(N(C)C)C3O)C2C)OC(C)C1O (centres unmarked) [Compound III H H H, 8,8a-Deoxy-8,8a-Cyclopropyloleandomycin]	protection against infection which was comparable to natural oleandomycin	–

SMILES	MIC [1]	MIC [2, 8]	MIC [3]	MIC [4]	MIC [5]	MIC [6]	protection against infection [7]	MIC ([2]; 01A400R)
COC1CC(OC2C(C)C(=O)OC(C)C(C)C(O[Si](C)(C)C)C(C)C(=O)C3(CC3)CC(C)C(OC3OC(C)CC(N(C)C)C3OC(C)=O)C2C)OC(C)C1OC(C)=O (centres unmarked) [Compound III Ac Ac Me3 Si, 8,8a-Deoxy-8,8a-Cycloproyl-2',4"-Diacetyl-11-Trimethylsilyloleandomycin]	3.12 µg/mL (≈ 3.7 µM)	–	> 200 µg/mL	> 200 µg/mL	> 200 µg/mL	12.5 µg/mL (≈ 14.8 µM)	–	> 200 µg/mL
